Experimental data from patent US11253517B2, “Small molecule regulators of steroid receptor coactivators and methods of use thereof” (BAYLOR COLLEGE OF MEDICINE, priority 2016, dated 2022).

How the values were obtained:
Experiment in all cases: Kinase-Glo Luminescent Kinase Assay
Type in all cases: biochemical
[1] = molecular target: T1, LCK (Homo sapiens, UniProt P06239)
T1 construct: purchased Promega
Protocol: (§1) SI-12 was also tested for its ability to disrupt kinase activity. The effects of the compound were tested on a panel of 24 kinases using a Kinase-Glo Luminescent Kinase Assay system (Promega; Madison, Wis.). SI-12 was tested, at concentrations of 1000 nM, 50 nM, and 5 nM, for its ability to interfere with recombinant kinases in the assay system. The amount of ATP to ADP conversion in the presence of SI-12 was compared to a DMSO vehicle control. The values shown in Table 3 represent the percentage of kinase activity compared to a DMSO vehicle control.
(§2) In Table 3, “−” represents less than 20% inhibition; “+” represents from 20% to 40% inhibition; “++” represents from 40% to 60% inhibition; and “+++” represents greater than 60% inhibition.

[2] = molecular target: T2, AMPK A1 /B1/G2 (Homo sapiens, UniProt Q13131)
T2 construct: purchased Promega
T2 sequence (Q13131 whole entry): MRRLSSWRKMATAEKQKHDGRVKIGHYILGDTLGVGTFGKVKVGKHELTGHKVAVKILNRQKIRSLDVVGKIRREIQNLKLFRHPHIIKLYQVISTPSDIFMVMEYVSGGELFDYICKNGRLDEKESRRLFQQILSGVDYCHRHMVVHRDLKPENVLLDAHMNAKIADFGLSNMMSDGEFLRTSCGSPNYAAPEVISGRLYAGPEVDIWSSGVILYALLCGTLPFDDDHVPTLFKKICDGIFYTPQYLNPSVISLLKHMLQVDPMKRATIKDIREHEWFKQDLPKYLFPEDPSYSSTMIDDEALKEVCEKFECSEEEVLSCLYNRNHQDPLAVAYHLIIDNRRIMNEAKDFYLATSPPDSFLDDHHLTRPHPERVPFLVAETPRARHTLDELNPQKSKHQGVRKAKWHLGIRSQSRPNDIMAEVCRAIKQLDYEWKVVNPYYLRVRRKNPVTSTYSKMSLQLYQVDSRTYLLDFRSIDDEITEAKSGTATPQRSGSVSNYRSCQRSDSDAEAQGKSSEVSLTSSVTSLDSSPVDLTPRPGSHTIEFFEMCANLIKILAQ
T2 sequence (Q9Y478 whole entry partner): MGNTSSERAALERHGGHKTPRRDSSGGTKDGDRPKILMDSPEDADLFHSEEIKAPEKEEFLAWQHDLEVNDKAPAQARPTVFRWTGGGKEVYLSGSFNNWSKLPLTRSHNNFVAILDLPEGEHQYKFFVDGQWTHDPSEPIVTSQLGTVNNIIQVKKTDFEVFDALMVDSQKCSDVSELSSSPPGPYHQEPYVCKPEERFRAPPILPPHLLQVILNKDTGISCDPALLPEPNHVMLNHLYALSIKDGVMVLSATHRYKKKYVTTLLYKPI
T2 sequence (Q9UGJ0 whole entry partner): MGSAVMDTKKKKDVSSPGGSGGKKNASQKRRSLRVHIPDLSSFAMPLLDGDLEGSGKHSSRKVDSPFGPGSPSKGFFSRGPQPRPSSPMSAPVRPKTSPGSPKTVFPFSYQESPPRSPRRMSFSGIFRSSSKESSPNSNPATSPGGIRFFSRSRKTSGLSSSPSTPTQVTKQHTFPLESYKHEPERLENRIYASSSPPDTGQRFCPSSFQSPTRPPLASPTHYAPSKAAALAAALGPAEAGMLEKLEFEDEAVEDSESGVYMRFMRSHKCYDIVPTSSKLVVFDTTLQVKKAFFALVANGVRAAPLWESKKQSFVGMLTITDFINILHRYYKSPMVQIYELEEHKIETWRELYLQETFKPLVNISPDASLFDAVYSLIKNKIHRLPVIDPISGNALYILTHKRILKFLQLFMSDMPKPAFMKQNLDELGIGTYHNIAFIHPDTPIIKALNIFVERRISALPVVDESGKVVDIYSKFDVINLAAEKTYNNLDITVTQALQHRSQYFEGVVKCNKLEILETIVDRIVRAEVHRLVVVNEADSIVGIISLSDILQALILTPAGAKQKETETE
Protocol: as §1, §2

[3] = molecular target: T3, IRAK4 (Homo sapiens, UniProt Q9NWZ3)
T3 construct: purchased Promega
T3 sequence (Q9NWZ3 1-460): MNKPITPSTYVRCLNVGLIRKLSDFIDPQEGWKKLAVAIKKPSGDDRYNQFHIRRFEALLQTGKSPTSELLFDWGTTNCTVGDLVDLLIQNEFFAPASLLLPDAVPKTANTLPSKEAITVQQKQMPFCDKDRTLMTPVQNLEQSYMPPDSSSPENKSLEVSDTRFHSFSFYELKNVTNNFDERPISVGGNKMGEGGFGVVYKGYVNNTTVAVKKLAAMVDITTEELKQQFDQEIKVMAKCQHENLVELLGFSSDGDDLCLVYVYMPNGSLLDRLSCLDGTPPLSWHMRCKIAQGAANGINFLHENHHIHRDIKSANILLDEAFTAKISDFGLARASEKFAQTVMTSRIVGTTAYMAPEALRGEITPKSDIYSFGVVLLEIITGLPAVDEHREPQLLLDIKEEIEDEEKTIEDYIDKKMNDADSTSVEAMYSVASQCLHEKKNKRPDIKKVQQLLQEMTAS
Protocol: as §1, §2

[4] = molecular target: T4, IKKb (Homo sapiens, UniProt O14920)
T4 construct: purchased Promega
T4 sequence (O14920 1-756): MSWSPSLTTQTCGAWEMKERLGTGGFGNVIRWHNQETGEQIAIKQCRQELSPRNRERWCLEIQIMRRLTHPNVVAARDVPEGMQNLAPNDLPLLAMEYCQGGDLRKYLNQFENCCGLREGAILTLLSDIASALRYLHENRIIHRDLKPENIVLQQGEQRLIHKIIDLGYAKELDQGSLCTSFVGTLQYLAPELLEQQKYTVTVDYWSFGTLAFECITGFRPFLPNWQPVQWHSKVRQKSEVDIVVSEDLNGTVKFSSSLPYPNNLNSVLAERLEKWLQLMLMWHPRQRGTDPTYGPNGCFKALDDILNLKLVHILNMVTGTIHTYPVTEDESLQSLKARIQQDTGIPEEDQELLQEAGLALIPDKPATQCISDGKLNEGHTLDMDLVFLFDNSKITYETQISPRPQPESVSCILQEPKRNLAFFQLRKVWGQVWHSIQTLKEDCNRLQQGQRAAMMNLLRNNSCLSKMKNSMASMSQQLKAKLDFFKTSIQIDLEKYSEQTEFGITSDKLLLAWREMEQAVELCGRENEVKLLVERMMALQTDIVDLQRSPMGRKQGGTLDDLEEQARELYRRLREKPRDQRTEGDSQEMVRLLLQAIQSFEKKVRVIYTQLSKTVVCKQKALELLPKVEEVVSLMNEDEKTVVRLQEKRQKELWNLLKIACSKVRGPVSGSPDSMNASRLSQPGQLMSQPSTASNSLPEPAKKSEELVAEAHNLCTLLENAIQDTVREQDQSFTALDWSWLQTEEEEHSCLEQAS
Protocol: as §1, §2

[5] = molecular target: T5, JAK3 (Homo sapiens, UniProt P52333)
T5 construct: purchased Promega
T5 sequence (P52333 1-1124): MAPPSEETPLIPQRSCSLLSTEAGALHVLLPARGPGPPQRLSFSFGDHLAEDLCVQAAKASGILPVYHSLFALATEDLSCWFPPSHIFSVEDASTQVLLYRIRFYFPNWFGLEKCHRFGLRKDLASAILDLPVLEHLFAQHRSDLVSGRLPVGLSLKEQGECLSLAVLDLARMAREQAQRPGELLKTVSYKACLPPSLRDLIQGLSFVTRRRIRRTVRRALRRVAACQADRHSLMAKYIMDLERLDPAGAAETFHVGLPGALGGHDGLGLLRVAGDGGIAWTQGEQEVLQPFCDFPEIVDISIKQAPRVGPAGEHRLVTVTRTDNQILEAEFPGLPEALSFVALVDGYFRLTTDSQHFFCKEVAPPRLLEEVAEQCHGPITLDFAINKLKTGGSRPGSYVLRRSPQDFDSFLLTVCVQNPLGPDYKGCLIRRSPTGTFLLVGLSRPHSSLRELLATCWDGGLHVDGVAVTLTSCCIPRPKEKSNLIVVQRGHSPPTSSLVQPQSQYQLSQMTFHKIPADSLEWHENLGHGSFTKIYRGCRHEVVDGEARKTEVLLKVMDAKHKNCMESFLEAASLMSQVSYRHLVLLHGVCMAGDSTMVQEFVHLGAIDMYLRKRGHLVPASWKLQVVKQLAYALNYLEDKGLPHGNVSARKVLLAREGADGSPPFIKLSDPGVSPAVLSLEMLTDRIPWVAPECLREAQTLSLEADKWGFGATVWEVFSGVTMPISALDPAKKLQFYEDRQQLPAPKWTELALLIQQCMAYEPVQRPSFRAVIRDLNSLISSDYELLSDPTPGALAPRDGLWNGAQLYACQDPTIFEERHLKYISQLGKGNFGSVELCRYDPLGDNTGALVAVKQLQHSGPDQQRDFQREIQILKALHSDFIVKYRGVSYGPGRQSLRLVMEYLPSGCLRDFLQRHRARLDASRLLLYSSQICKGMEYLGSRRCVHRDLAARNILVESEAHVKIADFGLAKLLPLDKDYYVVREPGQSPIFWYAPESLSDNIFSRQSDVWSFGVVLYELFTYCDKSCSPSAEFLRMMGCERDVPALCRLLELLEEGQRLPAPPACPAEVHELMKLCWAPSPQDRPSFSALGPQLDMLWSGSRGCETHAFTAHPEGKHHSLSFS
Protocol: as §1, §2

[6] = molecular target: T6, P38A (Homo sapiens, UniProt Q16539)
T6 construct: purchased Promega
T6 sequence (Q16539 2-360 limits assumed): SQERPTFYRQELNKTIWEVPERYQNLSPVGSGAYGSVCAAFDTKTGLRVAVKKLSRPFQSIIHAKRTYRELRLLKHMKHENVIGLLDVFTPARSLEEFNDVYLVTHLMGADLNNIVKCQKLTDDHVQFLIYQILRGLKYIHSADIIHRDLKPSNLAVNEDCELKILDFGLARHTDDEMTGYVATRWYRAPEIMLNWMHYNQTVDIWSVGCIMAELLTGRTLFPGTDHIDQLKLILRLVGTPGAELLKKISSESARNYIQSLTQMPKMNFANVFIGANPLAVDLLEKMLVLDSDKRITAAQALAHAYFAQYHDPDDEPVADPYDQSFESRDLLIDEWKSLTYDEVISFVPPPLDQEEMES
Protocol: as §1, §2

T1 sequence (P06239 whole entry): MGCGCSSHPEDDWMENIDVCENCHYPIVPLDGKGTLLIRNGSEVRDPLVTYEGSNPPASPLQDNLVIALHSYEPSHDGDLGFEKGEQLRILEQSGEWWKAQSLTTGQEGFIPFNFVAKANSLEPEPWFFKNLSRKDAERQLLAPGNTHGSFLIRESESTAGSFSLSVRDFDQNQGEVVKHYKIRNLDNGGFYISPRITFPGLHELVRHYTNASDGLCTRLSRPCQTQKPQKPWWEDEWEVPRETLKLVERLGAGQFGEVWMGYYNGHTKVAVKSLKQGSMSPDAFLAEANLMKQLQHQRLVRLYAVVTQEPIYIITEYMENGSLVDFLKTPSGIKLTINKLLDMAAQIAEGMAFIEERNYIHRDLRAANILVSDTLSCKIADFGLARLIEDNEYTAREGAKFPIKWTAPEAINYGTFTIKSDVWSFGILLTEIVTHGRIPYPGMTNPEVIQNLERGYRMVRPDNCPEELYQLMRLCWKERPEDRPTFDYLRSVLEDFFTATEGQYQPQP

CC(=NNc1nc2cc(F)c(F)cc2n1C)c1ccc(F)cn1 [SI-12]
LCK kinase inhibition ([1]; 5 nM): − (less than 20% inhibition)
LCK kinase inhibition ([1]; 50 nM): − (less than 20% inhibition)
LCK kinase inhibition ([1]; 1000 nM): − (less than 20% inhibition)
AMPK A1 /B1/G2 kinase inhibition ([2]; 5 nM): − (less than 20% inhibition)
AMPK A1 /B1/G2 kinase inhibition ([2]; 50 nM): − (less than 20% inhibition)
AMPK A1 /B1/G2 kinase inhibition ([2]; 1000 nM): − (less than 20% inhibition)
IRAK4 kinase inhibition ([3]; 5 nM): − (less than 20% inhibition)
IRAK4 kinase inhibition ([3]; 50 nM): − (less than 20% inhibition)
IRAK4 kinase inhibition ([3]; 1000 nM): − (less than 20% inhibition)
IKKb kinase inhibition ([4]; 5 nM): ++ (from 40% to 60% inhibition)
IKKb kinase inhibition ([4]; 50 nM): +++ (greater than 60% inhibition)
IKKb kinase inhibition ([4]; 1000 nM): +++ (greater than 60% inhibition)
JAK3 kinase inhibition ([5]; 5 nM): − (less than 20% inhibition)
JAK3 kinase inhibition ([5]; 50 nM): + (from 20% to 40% inhibition)
JAK3 kinase inhibition ([5]; 1000 nM): + (from 20% to 40% inhibition)
P38A kinase inhibition ([6]; 5 nM): − (less than 20% inhibition)
P38A kinase inhibition ([6]; 50 nM): − (less than 20% inhibition)
P38A kinase inhibition ([6]; 1000 nM): − (less than 20% inhibition)
